We go through ten compounds from publication PMC9865589, “Synthesis and Evaluation of Novel S-alkyl Phthalimide- and S-benzyl-oxadiazole-quinoline Hybrids as Inhibitors of Monoamine Oxidase and Acetylcholinesterase” (Pharmaceuticals, 2022).

Several values for one entry are separate records, joined by “and”; a condition that tells them apart may be missing. Equal entries are not always repeated.

The term IC50 denotes the concentration at which inhibition is half-maximal. High values mean weaker potency in that assay, low ones greater potency in that assay.

Common to all, as to type: biochemical
For experiment [1], the target named is T1, MAO-B (Homo sapiens, UniProt P27338).
T1 sequence (P27338 1-520): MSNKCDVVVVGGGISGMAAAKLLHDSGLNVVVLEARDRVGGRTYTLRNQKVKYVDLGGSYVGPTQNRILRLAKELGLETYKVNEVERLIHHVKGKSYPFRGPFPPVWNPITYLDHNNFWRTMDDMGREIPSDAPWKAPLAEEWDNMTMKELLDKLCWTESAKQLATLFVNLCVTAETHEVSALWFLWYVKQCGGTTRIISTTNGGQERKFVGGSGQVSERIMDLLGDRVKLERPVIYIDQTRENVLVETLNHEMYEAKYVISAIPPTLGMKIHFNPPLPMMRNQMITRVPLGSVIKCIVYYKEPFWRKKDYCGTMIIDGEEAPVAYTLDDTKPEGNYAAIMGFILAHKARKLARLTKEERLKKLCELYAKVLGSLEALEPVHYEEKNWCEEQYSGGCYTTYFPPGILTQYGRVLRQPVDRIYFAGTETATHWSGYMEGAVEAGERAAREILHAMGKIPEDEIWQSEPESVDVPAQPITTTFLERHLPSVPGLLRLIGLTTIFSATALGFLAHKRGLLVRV
The experiment in a line: biochemical. The protocol:
(§1) Different test chemicals and substrate concentrations were utilized in the kinetic experiments. Lineweaver-Burk plots were employed to determine the kind of inhibition, and they were used to track how the inhibitor affected Km and Vmax by plotting the reciprocal reaction rate against the reciprocal substrate concentrations.
(§2) According to the previously reported protocol, the synthesized compounds’ action on the monoamine oxidase (MAO-A and MAO-B) enzymes was tested. The enzyme was produced just 15 to 20 min before, at a cold room temperature. […] White 96-well plates were utilized for the test. The assay volume was 100 μL, having 60 μL buffer (pH 7.4) and 10 μL test compound (0.1 mM, 10% DMSO), followed by adding enzyme 10 μL (26 μg of protein for MAO-A and 5.0 μg for MAO-B). For MAO-A and MAO-B, the mixture was incubated for 20 and 15 min, respectively. The mixture was then given 10 μL of the substrate and 10 μL of newly prepared Amplex red. […] The non-linear curve fitting tool PRISM 5.0 (GraphPad, San Diego, CA, USA) was employed to compute IC50 values.

The target of experiment [2] is T2, MAO-A (Homo sapiens, UniProt P21397).
T2 sequence (P21397 1-527): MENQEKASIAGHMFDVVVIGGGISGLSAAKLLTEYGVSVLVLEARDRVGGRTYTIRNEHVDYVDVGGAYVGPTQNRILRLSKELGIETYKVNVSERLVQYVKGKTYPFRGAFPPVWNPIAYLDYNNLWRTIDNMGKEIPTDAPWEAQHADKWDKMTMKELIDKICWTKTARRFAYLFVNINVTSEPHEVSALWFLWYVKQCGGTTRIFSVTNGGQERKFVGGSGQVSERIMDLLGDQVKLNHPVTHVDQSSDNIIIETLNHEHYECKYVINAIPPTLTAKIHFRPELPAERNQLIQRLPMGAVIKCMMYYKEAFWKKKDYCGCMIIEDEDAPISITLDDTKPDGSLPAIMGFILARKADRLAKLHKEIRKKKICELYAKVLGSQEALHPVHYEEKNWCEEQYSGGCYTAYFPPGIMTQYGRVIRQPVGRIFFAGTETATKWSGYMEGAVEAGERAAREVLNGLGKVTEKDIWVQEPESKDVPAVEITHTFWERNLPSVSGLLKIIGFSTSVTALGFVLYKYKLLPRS
The experiment in a line: Monoamine oxidase A inhibition assay (Amplex red fluorescence). The note with it: for IC50: average ± SEM, triplicate. The protocol: as §1, §2

Experiment [3] concerns the target AChE (Homo sapiens, UniProt P22303). The experiment in a line: biochemical. The conditions noted are these: for IC50: average ± SEM, triplicate.
From the text: as §1
All substances were put through a little modified version of Ellman’s test to gauge the effectiveness of their ability to inhibit acetylcholinesterase (AChE). Released thiocholine reacts with chromogenic reagent 5,5-dithio-bis (2-nitrobenzoic) acid to produce a colorful product […]. At a concentration of 2.5 units/mL, the enzyme solutions were prepared. The assay volume was 100 μL, having 60 μL buffer and 10 μL test compound (0.1 mM, 10% DMSO), pursued by inserting enzyme 10 μL […]. The mixture was incubated for 10 min. 10 μL of the substrate and 10 μL of DTNB were added to the mixture.

[4] abbreviates: Lineweaver-Burk plots, Vmax unaffected, Km increased.

Sequence of AChE (P22303 32-614): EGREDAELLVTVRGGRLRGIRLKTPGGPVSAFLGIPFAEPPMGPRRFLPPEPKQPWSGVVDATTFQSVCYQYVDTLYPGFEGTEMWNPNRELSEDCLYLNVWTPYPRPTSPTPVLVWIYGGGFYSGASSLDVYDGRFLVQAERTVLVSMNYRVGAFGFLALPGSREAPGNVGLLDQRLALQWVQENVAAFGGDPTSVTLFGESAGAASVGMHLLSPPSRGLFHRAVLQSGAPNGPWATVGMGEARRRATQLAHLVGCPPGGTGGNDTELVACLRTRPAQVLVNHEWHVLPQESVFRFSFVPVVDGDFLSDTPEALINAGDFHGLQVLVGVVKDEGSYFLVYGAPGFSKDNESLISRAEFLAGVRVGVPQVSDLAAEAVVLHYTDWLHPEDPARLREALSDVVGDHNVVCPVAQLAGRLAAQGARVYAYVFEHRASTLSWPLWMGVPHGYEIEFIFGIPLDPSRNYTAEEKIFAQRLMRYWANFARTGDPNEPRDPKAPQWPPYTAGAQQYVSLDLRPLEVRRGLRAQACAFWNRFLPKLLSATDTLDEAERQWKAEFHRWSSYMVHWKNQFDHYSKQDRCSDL

Take `O=C1c2ccccc2C(=O)N1CSc1nnc(-c2cc(-c3ccccc3)nc3ccccc23)o1` [Compound 5a, 2-((5-(2-Phenylquinolin-4-yl)-1,3,4-oxadiazol-2-ylthio)methyl)isoindoline-1,3-dione]: the half-inhibitory concentration (IC50) came to 1.59 ± 1.66 µM in experiment [1], 0.91 ± 0.15 µM in experiment [2] and 1.4 ± 0.45 µM in experiment [3]. Also, the “type of inhibition of MAO-A” value in experiment [2] (setting [4]) is listed as “pure competitive type of inhibition”.
Take `O=C1c2ccccc2C(=O)N1CCSc1nnc(-c2cc(-c3ccccc3)nc3ccccc23)o1` [Compound 5b, 2-(2-(5-(2-Phenylquinolin-4-yl)-1,3,4-oxadiazol-2-ylthio)ethyl)isoindoline-1,3-dione]: the IC50 in experiment [1] came out at 2.61 ± 2.48 µM; in experiment [2] it was 1.81 ± 0.38 µM; in experiment [3] it was 2.55 ± 0.96 µM.
As for `O=C1c2ccccc2C(=O)N1CCCSc1nnc(-c2cc(-c3ccccc3)nc3ccccc23)o1` [Compound 5c, 2-(3-(5-(2-Phenylquinolin-4-yl)-1,3,4-oxadiazol-2-ylthio)propyl)isoindoline-1,3-dione], the IC50 in experiment [1] worked out at 3.39 ± 0.42 µM; in experiment [2], 3.31 ± 0.8 µM; in experiment [3], 1.02 ± 0.65 µM. The “type of inhibition of AChE” value in experiment [3] (setting [4]) is reported as “pure competitive type of inhibition”.
Regarding `O=C1c2ccccc2C(=O)N1CCCCSc1nnc(-c2cc(-c3ccccc3)nc3ccccc23)o1` [Compound 5d, 2-(4-(5-(2-Phenylquinolin-4-yl)-1,3,4-oxadiazol-2-ylthio)butyl)isoindoline-1,3-dione], the values for the concentration for half-maximal inhibition (IC50) in experiment [1], in experiment [2] and in experiment [3] were 3.76 ± 1.04 µM, 3.18 ± 1.23 µM and 2.38 ± 0.92 µM, respectively.
Regarding `O=C1c2ccccc2C(=O)N1CCCCCSc1nnc(-c2cc(-c3ccccc3)nc3ccccc23)o1` [Compound 5e, 2-(5-(5-(2-Phenylquinolin-4-yl)-1,3,4-oxadiazol-2-ylthio)pentyl)isoindoline-1,3-dione], the values for the half-maximal inhibitory concentration (IC50) in experiment [1], in experiment [2] and in experiment [3] were 3.84 ± 0.91 µM, 4.14 ± 0.35 µM and 1.29 ± 0.75 µM, respectively.
For `O=C1c2ccccc2C(=O)N1CCCCCCSc1nnc(-c2cc(-c3ccccc3)nc3ccccc23)o1` [Compound 5f, 2-(6-(5-(2-Phenylquinolin-4-yl)-1,3,4-oxadiazol-2-ylthio)hexyl)isoindoline-1,3-dione], the IC50 in experiment [1] turned out to be 0.84 ± 0.06 µM; in experiment [2], 4.88 ± 1.75 µM; in experiment [3], 3.32 ± 0.45 µM. Also, the “type of inhibition of MAO-B” value in experiment [1] (setting [4]) is “pure competitive type of inhibition”.
Consider `FC(F)(F)c1ccc(CSc2nnc(-c3cc(-c4ccccc4)nc4ccccc34)o2)cc1` [Compound 6a, 4-(5-(4-(Trifluoromethyl)benzylthio)-1,3,4-oxadiazol-2-yl)-2-phenylquinoline], for which the half-inhibitory concentration (IC50) in experiment [1] was 3.71 ± 2.88 µM; in experiment [2], 1.02 µM and 1.51 µM; in experiment [3] it was 3.23 ± 0.95 µM.
Regarding `FC(F)(F)c1cccc(CSc2nnc(-c3cc(-c4ccccc4)nc4ccccc34)o2)c1` [Compound 6b, 4-(5-(3-(Trifluoromethyl)benzylthio)-1,3,4-oxadiazol-2-yl)-2-phenylquinoline], the concentration for half-maximal inhibition (IC50) in experiment [1] is 2.71 ± 0.88 µM; in experiment [2], 1.51 µM and 1.02 µM; in experiment [3] it was 3.54 ± 1.05 µM.
`FC(F)(F)c1ccccc1CSc1nnc(-c2cc(-c3ccccc3)nc3ccccc23)o1` [Compound 6c, 4-(5-(2-(Trifluoromethyl)benzylthio)-1,3,4-oxadiazol-2-yl)-2-phenylquinoline]: the half-maximal inhibitory concentration (IC50) worked out at 5.59 ± 3.22 µM in experiment [1], 6.81 ± 2.65 µM in experiment [2] and 4.38 ± 1.45 µM in experiment [3].
For `c1ccc(CSc2nnc(-c3cc(-c4ccccc4)nc4ccccc34)o2)cc1` [Compound 6d, 4-(5-(Benzylthio)-1,3,4-oxadiazol-2-yl)-2-phenylquinoline], in that order: 2.9 ± 1.85 µM, 4.16 ± 1.71 µM and 4.98 ± 1.85 µM.
